# Results as given in article PMC11846289, “New tetrahydroisoquinolines bearing nitrophenyl group targeting HSP90 and RET enzymes: synthesis, characterization and biological evaluation” (BMC Chemistry, 2025).
# “Also recorded” adds a separate entry of the source.
# Experiments:
# [1] = system: HCT116 (colon carcinoma human); test: one spot 100 µg/ml cytotoxicity, HCT116; assay type: cell-based; conditions: Homo sapiens, HCT-116, percent inhibition, read-out: one spot concentration inhibition, HCT116
# [2] = system: HEPG2 (human liver carcinoma); test: one spot 100 µg/ml cytotoxicity, HEPG2; assay type: cell-based; conditions: Homo sapiens, HepG2, percent inhibition, read-out: one spot concentration inhibition, HEPG2
# [3] = system: H460 (human lung carcinoma); test: one spot 100 µg/ml cytotoxicity, H460; assay type: cell-based; conditions: Homo sapiens, NCI-H460, percent inhibition, read-out: one spot concentration inhibition, H460
# [4] = system: CACO2 (colon carcinoma human); test: one spot 100 µg/ml cytotoxicity, CACO2; assay type: cell-based; conditions: Homo sapiens, Caco-2, percent inhibition, read-out: one spot concentration inhibition, CACO2
# [5] = system: MCF7 (human breast carcinoma); test: one spot 100 µg/ml cytotoxicity, MCF7; assay type: cell-based; conditions: Homo sapiens, MCF7, percent inhibition, read-out: one spot concentration inhibition, MCF7
# [6] = system: normal human skin cell line (HSF); test: one spot 100 µg/ml cytotoxicity, normal skin cell line HSF; assay type: cell-based; conditions: Homo sapiens
# HEPG2 cells [7] = test: Annexin V-FITC/PI apoptosis assay; assay type: cell-based, human
# Procedure: Showing a marked rise in overall apoptosis relative to the untreated control. […] HEPG2 cell death increases by 59 times following treatment with compounds 3. Therefore compound 3 has a biological mechanism that inhibits the proliferation of HEPG2 cells and has cytotoxic effects against cancer.
# The Annexin-V FITC apoptosis assay of compounds 3 against HEPG2 was performed according to (BioVision Research Products (code k101-25). (www.biovision.com).
# [8] = system: A549 (human lung carcinoma); test: one spot 100 µg/ml cytotoxicity, A549; assay type: cell-based; conditions: Homo sapiens, A549, percent inhibition, read-out: one spot concentration inhibition, A549
# MCF7 cell line = test: MTT in vitro cytotoxicity, MCF7; assay type: cell-based, human
# Procedure: (§1) Using the MTT test method, the in vitro cytotoxicity of our synthesized compounds at different doses ranging from […] was examined in two cell lines, HEPG2 and MCF7, to examine 50% of the cancer cells dying.
# (§2) Some of the synthesized compounds were tested as anticancer activity for the IC50 against two cell lines HEPG2 and MCF7 cells according to method. All cell lines were obtained from national cancer institute, Cairo—Egypt.
# HEPG2 cell line = test: MTT in vitro cytotoxicity, HEPG2; assay type: cell-based, human
# Procedure: as §1, §2
# HEPG2 cells [9] = test: Cell cycle analysis by DNA flow cytometry; assay type: cell-based, human
# Excerpt: After adding compound 3, we explore the growth inhibitory cell cycle mechanism of HEPG2 cell lines using DNA flow cytometry to examine the control and advancement of the cell cycle in HEPG2 cancer cells. […] When compound 3 was applied to HEPG2 cells, the cells cycled between the G0-G1 and G2/M phases (Fig. 4, Table 3). […] Compound 3 can also stop HEPG2 cells at the G0–G1% stage of the cell cycle, with an increase in the G0–G1phase fraction from 34.54 to 40.10.
# The cell cycle arrests of compound 3 against HEPG2 was carried out according to Abcam method (code ab139418), (www.abcam.co.jp).
# [10] = system: HUH7 (human liver carcinoma); test: one spot 100 µg/ml cytotoxicity, HUH7; assay type: cell-based; conditions: Homo sapiens, Huh-7, percent inhibition, read-out: one spot concentration inhibition, HUH7
# [11] = system: MG-63 (human osteosarcoma); test: one spot 100 µg/ml cytotoxicity, MG-63; assay type: cell-based; conditions: Homo sapiens, MG-63, percent inhibition, read-out: one spot concentration inhibition, MG-63
# HSF = test: IC50 against normal cell line HSF; assay type: cell-based, human; conditions: Homo sapiens; normal skin cell line HSF; read-out: IC50 FOR HSF ± S.D.
smiles,measurement,setting,value
"CSc1nc(C)c2c(c1C#N)CC(C)(O)C(C(C)=O)C2c1cccc([N+](=O)[O-])c1 (stereo not drawn) [Compound 3, 7-Acetyl-4-cyano-1,6-dimethyl-6-hydroxy-3-methylthio-8-(3-nitrophenyl)−5,6,7,8-tetrahydroisoquinoline]",inhibition at 100 µg/mL,[1],67.1%
same,inhibition at 100 µg/mL,[2],67.7%
same,inhibition at 100 µg/mL,[3],62%
same,inhibition at 100 µg/mL,[4],59.2%
same,inhibition at 100 µg/mL,[5],71.5%
same,cytotoxicity at 100 µg/mL,"[6]; HSF, one spot 100 µg/ml, read-out: Inhibition percent of HSF cell line",52%
same,inhibition at 100 µg/mL,"[6]; 100 µg/ml, supplement Table S1, read-out: one spot concentration inhibition, HSF",50.6%
same,Apoptosis Early,"HEPG2 cells [7]; HEPG2, control 0.2",13.45%
same,Apoptosis Late,"HEPG2 cells [7]; HEPG2, control 0.31",16.78%
same,Necrosis,"HEPG2 cells [7]; HEPG2, control 1.36",2.96%
same,Apoptosis Total,"HEPG2 cells [7]; HEPG2, control 1.87",33.19%
same,fold increase in HEPG2 cell line apoptosis,HEPG2 cells [7]; relative to untreated control,59 fold
same,inhibition at 100 µg/mL,[8],50.6%
same,Selectivity Index = IC50 of HSF/ IC50 of MCF7,MCF7 cell line; HSF vs MCF7,2.9
same,IC50,"MCF7 cell line; Homo sapiens, MTT, MCF7, read-out: IC50 for MCF7 ± S.D",33 ± 0.034 mg/L
same,Selectivity Index = IC50 of HSF/IC50 of HEPG2,HEPG2 cell line; HSF vs HEPG2,1.2
same,IC50,"HEPG2 cell line; Homo sapiens, MTT, HEPG2, read-out: IC50 for HEPG2 ± S.D",75 ± 0.063 mg/L
same,cell cycle arrest phase,HEPG2 cells [9]; HEPG2,"G2/M phase; also recorded: G0-G1, G2/M phases"
same,%G2/M,"HEPG2 cells [9]; HEPG2, 48 h at IC50 75 µg/ml, control 12.12",25.67%
same,%S,"HEPG2 cells [9]; HEPG2, 48 h at IC50 75 µg/ml, control 23.51",22.10%
same,%G0–G1,"HEPG2 cells [9]; HEPG2, 48 h at IC50 75 µg/ml, control 34.54",40.1%
same,inhibition at 100 µg/mL,[10],32.9%
same,inhibition at 100 µg/mL,[11],44.3%
same,IC50,HSF,96 mg/L
